# pIC50: −log10 of the molar value.
# What was measured:
# [1] = Parallel Artificial Membrane Permeability Assay (PAMPA), GI; type: in vitro ADME; settings: GI (intestinal) PAMPA, value in brackets
# Method: Parallel Artificial Membrane Permeability Assay (PAMPA). Donor solution (0.5 mM) was prepared by diluting 1 mM dimethylsulfoxide (DMSO) compound stock solution using phosphate buffer (pH 7.4, 0.025 M). Filters were coated with 5 μL of a 1% (w/v) dodecane solution of phosphatidylcholine prepared from CHCl3 solution 10% w/v, for intestinal permeability. Donor solution (150 μL) was added to each well of the filter plate. To each well of the acceptor plate were added 300 μL of solution (50% DMSO in phosphate buffer). All compounds were tested in three different plates on different days. The sandwich was incubated for 5 h at room temperature under gentle shaking. After the incubation time, the plates were separated, and samples were taken from both receiver and donor sides and analyzed using LC with UV detection at 280 nm.
# LC analysis were performed with a Varian Prostar HPLC system (Varian Analytical Instruments, USA) equipped with a binary pump with a manual injection valve and model Prostar 325 UV-VIS Detector. Chromatographic separations were conducted using a Polaris C18-A column (150-4.6 mm, 5 μm particle size) at a flow rate of 0.8 mL min^−1 with a mobile phase composed of 60% ACN/40% H2O.
# Permeability (Papp) for PAMPA was calculated according to the following equation, obtained from Wohnsland and Faller and Sugano et al. equation with some modification in order to obtain permeability values in cm s^−1,
# where VA is the volume in the acceptor well, VD is the volume in the donor well (cm^3), A is the “effective area” of the membrane (cm^2), t is the incubation time (s) and r the ratio between drug concentration in the acceptor and equilibrium concentration of the drug in the total volume (VD+VA). Drug concentration is estimated by using the peak area integration.
# Membrane retentions (%) were calculated according to the following equation: […]
# where r is the ratio between drug concentration in the acceptor and equilibrium concentration, D, A, and Eq represented drug concentration in the donor, acceptor and equilibrium solution, respectively.
# [2] = target: T1, Human recombinant DDX3 (DDX3 wt helicase) (Homo sapiens, UniProt O00571); test: Helicase assay (anti-enzymatic activity against the DDX3 helicase); type: biochemical; settings: for activity compared with compound EI01D: DDX3 helicase inhibition relative to EI01D
# T1 construct: made in house
# T1 sequence (O00571 whole entry): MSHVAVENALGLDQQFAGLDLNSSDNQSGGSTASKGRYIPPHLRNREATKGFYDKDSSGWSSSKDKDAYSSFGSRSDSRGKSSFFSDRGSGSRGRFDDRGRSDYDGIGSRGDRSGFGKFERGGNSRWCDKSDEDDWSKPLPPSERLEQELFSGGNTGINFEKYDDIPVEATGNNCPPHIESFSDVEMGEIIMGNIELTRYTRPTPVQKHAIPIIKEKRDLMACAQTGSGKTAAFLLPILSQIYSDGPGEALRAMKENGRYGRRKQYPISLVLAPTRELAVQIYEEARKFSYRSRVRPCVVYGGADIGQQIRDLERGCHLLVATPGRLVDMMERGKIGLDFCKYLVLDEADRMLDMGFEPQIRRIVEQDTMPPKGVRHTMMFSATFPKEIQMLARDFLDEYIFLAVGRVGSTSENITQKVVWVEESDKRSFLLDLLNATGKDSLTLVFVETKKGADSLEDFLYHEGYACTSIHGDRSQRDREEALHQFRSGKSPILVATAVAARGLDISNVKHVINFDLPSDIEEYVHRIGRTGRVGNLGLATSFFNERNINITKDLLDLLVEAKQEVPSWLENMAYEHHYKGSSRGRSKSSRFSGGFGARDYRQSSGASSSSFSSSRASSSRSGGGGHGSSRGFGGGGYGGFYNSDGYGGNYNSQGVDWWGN
# Method: The helicase activity of DDX3 wt was monitored by measuring the conversion of a double stranded (ds) RNA (labelled at the 5′-end of one strand with a 6-FAM fluorescent) into single stranded (ss) nucleic acid. A final concentration of 25 nM RNA substrate was used in the experiments, unless otherwise stated. Reactions were performed in 50 mM TrisHCl pH 7.5, 1 mM DTT, 0.2 mg/ml BSA, 5% glycerol and 100 μM ATP, 10 mM MgCl2 at 37° C. degrees for 10′ and stopped by adding EDTA 50 mM pH 8. Products were separated through non-denaturating 8% PAGE at 5 W for 4 hours in TBE buffer at 4° C. Substrates and products were quantified by laser scanning densitometry (Thyphoon-TRIO, GE Healthcare).
# Human recombinant DDX3 was cloned, expressed and purified as described (Franca et al. Proteins 2007, 67, 1128-37).
# Water Solubility Assay = type: physicochemical; settings: for LogS: from aqueous solubility; for Aq. Solub.: water, room temperature, 24-36 h
# Method: Water Solubility Assay. Each solid compound (1 mg) was added to 1 mL of water. The samples were shaked in a shaker bath at room temperature for 24-36 h. The suspensions were filtered through a 0.45 μm nylon filter (Acrodisc), and the solubilized compound determined by LC-MS-MS assay. For each compound the determination was performed in triplicate.
# (§1) For the quantification was used an LC-MS system consisted of a Varian apparatus (Varian Inc) including a vacuum solvent degassing unit, two pumps (212-LC), a Triple Quadrupole MSD (Mod. 320-LC) mass spectrometer with ES interface and Varian MS Workstation System Control Vers. 6.9 software. Chromatographic separation was obtained using a Pursuit C18 column (50×2.0 mm) (Varian) with 3 μm particle size and gradient elution: eluent A being ACN and eluent B consisting of water. […] The flow rate was 0.2 mL min^−1 and injection volume was 5 μL. The instrument operated in positive mode and parameters were: detector 1850 V, drying gas pressure 25.0 psi, desolvation temperature 300.0° C., nebulizing gas 40.0 psi, needle 5000 V and shield 600 V. Nitrogen was used as nebulizer gas and drying gas. Collision induced dissociation was performed using Argon as the collision gas at a pressure of 1.8 mTorr in the collision cell. Microsomal Stability Assay. […] The reaction was stopped by cooling on ice and adding 1.0 mL of acetonitrile. The reaction mixtures were then centrifuged, and the parent drug and metabolites were subsequently determined by LC-UV-MS. Chromatographic analysis was performed with an Agilent 1100 LC/MSD VL system (G1946C) (Agilent Technologies, Palo Alto, Calif.) constituted by a vacuum solvent degassing unit, a binary high-pressure gradient pump, an 1100 series UV detector, and an 1100 MSD model VL benchtop mass spectrometer.
# [3] = test system: Human breast adenocarcinoma cell line (MDA-MB-231); test: Cytotoxicity test / growth inhibition, MDA-MB-231; type: cell-based; settings: MDA-MB-231, 48 hours, cell counting
# Method: (§2) Cells were purchased from American Type Culture Collection (ATCC, Manassas, Va., USA). The LNCaP (ATCC® CRL-1740™), A549 (ATCC® CCL-185™), MDA-MB-231 (ATCC® CRM-HTB-26™), 22Rv1 (ATCC® CRL-2505™), HCT-116 (ATCC® CCL-247™) and PC3 (ATCC® CRL-1435™) cells were maintained in Roswell Park Memorial Institute 1640 medium (RPMI; Euroclone, ECB9006L) supplemented with 10% fetal bovine serum (Euroclone; ECS0180L), 2 mM L-glutamine, 100 units/mL penicillin and […] streptomycin at 37° C. in an atmosphere of 5% CO2/air. DU145 (ATCC® HTB-81™), and DAOY (ATCC® HTB-186™) cells were maintained in Eagle's minimal essential medium (EMEM; Euro-clone, ECM0445L) supplemented with 10% fetal bovine serum (Euroclone; ECS0180L), 2 mM L-glutamine, 100 units/ml penicillin and […] streptomycin at 37° C. in an atmosphere of 5% CO2/air. SH-SY5Y (ATCC® CRL-2266™), DBRTG (ATCC® CRL-2020™), HeLa (ATCC® CCL-2™), HN6 cells (kindly provided by Dr Silvio Gutkind, UCSD Medical Center, Moores Cancer Center USA, Chen J. J et al, Oncotarget 2013, 4, 206-217)), U2OS (ATCC® HTB-96™), RD18 cells (kindly provided by Dr P. Boccuni Memorial Sloan-Kettering Cancer Center, New York, USA Vella S. et al. Clin Epigenetics. 2015 6; 7-82), cells were maintained in Dulbecco's modified Eagle's medium (DMEM; Euroclone, ECB7501L) supplemented with 10% fetal bovine serum (Euroclone; ECS0180L), 2 mM L-glutamine, 100 units/ml penicillin and […] streptomycin at 37° C. in an atmosphere of 5% CO2/air.
# (§3) Cell lines were seeded at appropriate densities in 2 mL growth medium in 6-wells culture plates 24 hours before the treatment with the inhibitor compounds. After 24 h the culture medium was removed and fresh medium containing increasing concentrations of chemical compounds was added to cells. The fixed final concentrations were: 0.1 μM, 1 μM, 10 μM, 100 μM. DMSO was the vehicle used for dilution of the compounds and its final concentration on cells was less than 0.2%. Medium-only containing wells were included as controls. Cells were incubated 48 hours with drugs and, then, cell viability was evaluated.
# (§4) Cells were detached from each well of the 6-wells plates with 300 μL of Trypsin and suspended in culture medium to a final volume of 1 mL. Cell viability was then assessed through cell counting. Cells were diluted in 1:50 ratio of an isotonic buffered diluent, Isoton (Backman Coulter), following the manufacturer's instructions, and counted using an automated cell counter (Z2 series Coulter Counter, Beckman Coulter). Each cell count was performed in three replicates. The values corresponding to the relative survival of cells in presence of each chemical compound at single concentrations were normalized to the untreated controls. Then, the half maximal inhibitory concentration (IC50) value, which represent the drug concentration that is required to induce a 50% growth inhibition in vitro, was calculated with GraphPad Prism 6.0 software using the best fitting sigmoid curve.
# [4] = test system: Human osteosarcoma cell line (U2OS); test: Cytotoxicity test / growth inhibition, U2OS; type: cell-based; settings: 48 hours, cell counting
# Method: as §2, §3, §4
# [5] = test system: Human head and neck squamous carcinoma cell line (HN6); test: Cytotoxicity test / growth inhibition, HN6; type: cell-based; settings: HN6, 48 hours, cell counting
# Method: as §2, §3, §4
# [6] = Microsomal Stability Assay (HLM); type: in vitro ADME; settings: human liver microsomes, 37° C., 60 min, NADPH-generating system; percentage of not metabolized compound
# Source text: as §1
# Chromatographic separation was obtained using a Varian Polaris C18-A column (150-4.6 mm, 5 μm particle size) and gradient elution: eluent A being ACN and eluent B consisting of water. […] The flow rate was 0.8 mL min^−1 and injection volume was 20 μL.
# The Agilent 1100 series mass spectra detection (MSD) single-quadrupole instrument was equipped with the orthogonal spray API-ES (Agilent Technologies, Palo Alto, Calif.). Nitrogen was used as nebulizing and drying gas. The pressure of the nebulizing gas, the flow of the drying gas, the capillary voltage, the fragmentor voltage, and the vaporization temperature were set at 40 psi, 9 L/min, 3000 V, 70 V, and 350° C., respectively. UV detection was monitored at 280 nm. The LC-ESI-MS determination was performed by operating the MSD in the positive ion mode. Spectra were acquired over the scan range m/z 100-1500 using a step size of 0.1 u. The percentage of not metabolized compound was calculated by comparison with reference solutions.
# [7] = test system: Human adenocarcinomic alveolar basal epithelial cell line (A549); test: Cytotoxicity test / growth inhibition, A549; type: cell-based; settings: A549, 48 hours, cell counting
# Method: as §2, §3, §4
structure (smiles),measurement,setting,value
"CC(C)CCc1cn(-c2ccc(NC(=O)Nc3ccccc3C(F)(F)F)cc2)nn1 [Compound 22b, 1-(4-(4-isopentyl-1H-1,2,3-triazol-1-yl)phenyl)-3-(2-(trifluoromethyl)phenyl)urea]",PAMPA GI (RM %) membrane retention,[1],24.8%
same,activity compared with compound EI01D,[2],approximately ten-fold more active
same,LogS,Water Solubility Assay,<−8.6
same,pIC50,[3],4.88
"CCCCc1nnc(-c2ccc(NC(=O)Nc3ccccc3C(F)(F)F)cc2)s1 [Compound 124, 1-(4-(5-butyl-1,3,4-thiadiazol-2-yl)phenyl)-3-(2-(trifluoromethyl)phenyl)urea]",pIC50,[4],4.22
"CCCCn1nnc(-c2ccc(NC(=O)Nc3ccccc3C(F)(F)F)cc2)n1 [Compound 51, 1-(4-(2-butyl-2H-tetrazol-5-yl)phenyl)-3-(2-(trifluoromethyl)phenyl)urea]",pIC50,[4],4.29
same,pIC50,[5],4.79
"Cc1c(Cl)cccc1NC(=O)Nc1ccc(-n2cc(CCC(C)C)nn2)cc1 [Compound 21b, 1-(3-chloro-2-methylphenyl)-3-(4-(4-isopentyl-1H-1,2,3-triazol-1-yl)phenyl)urea]",PAMPA GI (RM %) membrane retention,[1],59.1%
same,LogS,Water Solubility Assay,<−8.6
same,Aq. Solub.,Water Solubility Assay,<0.001 µg/mL
"CC(C)CCc1cn(-c2ccc(NC(=O)Nc3ccccc3C(F)(F)F)cn2)nn1 [Compound 86, 1-(6-(4-isopentyl-1H-1,2,3-triazol-1-yl)pyridin-3-yl)-3-(2-(trifluoromethyl)phenyl)urea]",pIC50,"[2]; DDX3 helicase activity, dsRNA unwinding, n.a = Compound not active, read-out: ID50 (the source's name)",4.29
"CC(C)CCc1cn(-c2ccc(NC(=O)Nc3ccccc3F)cc2)nn1 [Compound 55a, 1-(2-fluorophenyl)-3-(4-(4-isopentyl-1H-1,2,3-triazol-1-yl)phenyl)urea]",activity compared with compound EI01D,[2],approximately ten-fold more active
"CC(C)CCc1cn(-c2ccc(NC(=O)Nc3cccc(F)c3)cc2)nn1 [Compound 55b, 1-(3-fluorophenyl)-3-(4-(4-isopentyl-1H-1,2,3-triazol-1-yl)phenyl)urea]",activity compared with compound EI01D,[2],approximately ten-fold more active
"CCCCc1cn(-c2ccc(NC(=O)Nc3ccccc3C(F)(F)F)cc2F)nn1 [Compound 81, 1-(4-(4-butyl-1H-1,2,3-triazol-1-yl)-3-fluorophenyl)-3-(2-(trifluoromethyl)phenyl)urea]",PAMPA GI (RM %) membrane retention,[1],30.4%
same,Sability %,[6],94%
same,pIC50,[3],4.60
"CCOCn1nnc(-c2ccc(NC(=O)Nc3ccccc3C)cc2)n1 [Compound 50, 1-(4-(2-(ethoxymethyl)-2H-tetrazol-5-yl)phenyl)-3-(o-tolyl)urea]",pIC50,[3],4.63
"COCCc1cn(-c2ccc(NC(=O)Nc3ccccc3C)cc2)nn1 [Compound 20f, 1-(4-(4-(2-methoxyethyl)-1H-1,2,3-triazol-1-yl)phenyl)-3-o-tolylurea]",PAMPA GI (RM %) membrane retention,[1],7.4%
"Cc1ccccc1NC(=O)Nc1ccc(-n2cc(CCC(C)C)nn2)cc1 [Compound 20b, 1-(4-(4-isopentyl-1H-1,2,3-triazol-1-yl)phenyl)-3-o-tolylurea]",PAMPA GI (RM %) membrane retention,[1],26.7%
same,LogS,Water Solubility Assay,<−8.6
same,Aq. Solub.,Water Solubility Assay,<0.001 µg/mL
"CCCC(C)C(F)c1cn(-c2ccc(NC(=O)Nc3ccccc3C(F)(F)F)cc2)nn1 (stereo not shown) [Compound 42c, 1-(4-(4-(1-fluoro-2-methylpentyl)-1H-1,2,3-triazol-1-yl)phenyl)-3-(2-(trifluoromethyl)phenyl) urea]",pIC50,[4],4.65
same,pIC50,[5],5.20
same,pIC50,[7],4.24
same,pIC50,[3],4.47
